Data as given in patent US20220073536A1 (Rigel Pharmaceuticals, Inc., priority 2003, published 2022).
Read-outs that look alike come from different tables or passages of the source.

Tested on: cultured human mast cells (CHMC)
Assay: CHMC low cell density IgE activation: tryptase assay
Assay type: cell-based
Details: low cell density CHMC, IgE activation, tryptase release
Method: Inhibition of degranulation was measured at both low and high cell density by quantifying the release of the granule specific factors tryptase, histamine and hexosaminidase. Inhibition of release and/or synthesis of lipid mediators was assessed by measuring the release of leukotriene LTC4 and inhibition of release and/or synthesis of cytokines was monitored by quantifying TNF-α, IL-6 and IL-13. Tryptase and hexosaminidase were quantified using fluorogenic substrates as described in their respective examples. […] The protocols of the various assays are provided below.
Pellet CHMC cells (980 rpm, 10 min) and resuspend in pre-warmed MT. Add 65 ul of cells to each 96-well plate. Depending on the degranulation activity for each particular CHMC donor, load 1000-1500 cells/well. Mix four times followed by a 1 hr incubation at 37° C. […] Stimulate cells by adding 25 ul of 6× anti-IgE solution to the appropriate plates. Add 25 ul MT to un-stimulated control wells. Mix twice following addition of the anti-IgE. Incubate at 37° C. for 30 minutes. […] Spin plates at 1000 rpm for 10 min to pellet cells. Transfer 25 ul of supernatant to a 96-well black bottom plate and add 100 ul of freshly diluted tryptase substrate solution to each well. Incubate plates at room temperature for 30 min.

[1] = Homo sapiens, Mast cell, 8 pt, read-out: LD Tryptase, CHMC, IgE, 8 pt
[2] = 8 pt, read-out: LD Tryptase, CHMC, IgE, 8 pt
[3] = Homo sapiens, Mast cell, 3 pt, read-out: LD Tryptase, CHMC, IgE, 3 pt
[4] = 3 pt, read-out: LD Tryptase, CHMC, IgE, 3 pt

Structure (SMILES)	IC50 [1] [µM]	IC50 [3] [µM]	also measured
CC1(C)C(=O)Nc2cc(Nc3nc(Nc4ccc5cn[nH]c5c4)ncc3F)ccc2S1(=O)=O [Compound 273]	< 10		
CC1(C)C(=O)Nc2cc(Nc3nc(Nc4ccc5[nH]ncc5c4)ncc3F)ccc2S1(=O)=O [Compound 274]	< 10		
CNC(=O)COc1cccc(Nc2ncc(F)c(Nc3ccc4c(c3)NC(=O)C(C)(C)S4(=O)=O)n2)c1 [Compound 275, N4-(2,2-Dimethyl-1,1,3-trioxo-4H-benzo[1,4]thiazin-6-yl)-5-fluoro-N2-[3-(N-methylamino)carbonylmethyleneoxyphenyl]-2,4-pyrimidinediamine]			IC50 [2]: < 10 µM
COc1ccc(Nc2ncc(F)c(Nc3ccc4c(c3)NC(=O)C(C)(C)S4(=O)=O)n2)cc1Cl [Compound 276]			IC50 [2]: < 10 µM
CC1Sc2ccc(Nc3nc(Nc4ccc5cn[nH]c5c4)ncc3F)cc2NC1=O (centres unmarked) [Compound 277]	< 10		
CC1Sc2ccc(Nc3nc(Nc4ccc5[nH]ncc5c4)ncc3F)cc2NC1=O (centres unmarked) [Compound 278]	< 10		
CNC(=O)COc1cccc(Nc2ncc(F)c(Nc3ccc4c(c3)NC(=O)C(C)S4)n2)c1 (centres unmarked) [Compound 279, 5-Fluoro-N2-[3-(N-methylamino)carbonylmethyleneoxyphenyl]-N4-(2-methyl-3-oxo-2H,4H-benzo[1,4]thiazin-6-yl)-2,4-pyrimidinediamine]			IC50 [2]: < 10 µM
COc1ccc(Nc2ncc(F)c(Nc3ccc4c(c3)NC(=O)C(C)S4)n2)cc1Cl (centres unmarked) [Compound 280]	< 10		
O=C1CSc2ccc(Nc3nc(Nc4cccc(O)c4)ncc3F)cc2N1 [Compound 281]	< 10	< 10	
CC1(C)C(=O)Nc2cc(Nc3nc(Nc4cccc(O)c4)ncc3F)ccc2S1(=O)=O [Compound 283, racemic-N4-(2,2-Dimethyl-1,1,3-trioxo-4H-benzo[1,4]thiazin-6-yl)-5-fluoro-N2-[3-hydoxyphenyl]-2,4-pyrimidinediamine]			IC50 [2]: < 10 µM
COc1cc(Nc2ncc(F)c(Nc3ccc4c(c3)NC(=O)CS4)n2)cc(OC)c1OC [Compound 287]	< 10		
O=C1CSc2ccc(Nc3nc(Nc4ccc5[nH]ncc5c4)ncc3F)cc2N1 [Compound 288]	< 10		
COc1ccc(Nc2ncc(F)c(Nc3ccc4c(c3)NC(=O)C(C)(C)S4)n2)cc1Cl [Compound 289]			IC50 [2]: < 10 µM
COc1cc(Nc2ncc(F)c(Nc3ccc4c(c3)NC(=O)C(C)(C)S4)n2)cc(OC)c1 [Compound 290]	< 10		
Cc1cc(C)cc(Nc2ncc(F)c(Nc3ccc4c(c3)NC(=O)C(C)(C)S4)n2)c1 [Compound 291]	< 10		
COc1cc(Nc2ncc(F)c(Nc3ccc4c(c3)NC(=O)C(C)(C)S4)n2)cc(OC)c1OC [Compound 292]	< 10		
CC1(C)Sc2ccc(Nc3nc(Nc4cccc(O)c4)ncc3F)cc2NC1=O [Compound 293]	< 10		
CNC(=O)COc1cccc(Nc2ncc(F)c(Nc3ccc4c(c3)NC(=O)C(C)(C)S4)n2)c1 [Compound 294, N4-(2,2-Dimethyl-3-oxo-4H-benzo[1,4]thiazin-6-yl)-5-fluoro-N2-[3-(N-methylamino)carbonylmethyleneoxyphenyl]-2,4-pyrimidinediamine]			IC50 [4]: < 10 µM; IC50 [2]: < 10 µM
CC1(C)Sc2ccc(Nc3nc(Nc4ccc5cn[nH]c5c4)ncc3F)cc2NC1=O [Compound 295]	< 10	< 10	
COc1ccc(Nc2ncc(F)c(Nc3ccc4c(c3)NC(=O)C(C)(C)S4(=O)=O)n2)cc1F [Compound 297]	< 10	< 10	
COc1ccc(Nc2ncc(F)c(Nc3ccc4c(c3)NC(=O)C(C)(C)S4)n2)cc1F [Compound 299]			IC50 [4]: < 10 µM; IC50 [2]: < 10 µM
COc1ccc(Nc2ncc(F)c(Nc3ccc4c(c3)NC(=O)CS4)n2)cc1F [Compound 300, 5-Fluoro-N2-(3-fluoro-4-methoxyphenyl)-N4-(3-oxo-2H,4H-benzo[1,4]thiazin-6-yl)-2,4-pyrimidinediamine]	< 10	< 10	
Cc1cc(C)cc(Nc2ncc(F)c(Nc3ccc4c(c3)NC(=O)CS4)n2)c1 [Compound 301]	< 10	< 10	
Cc1cc(C)cc(Nc2ncc(F)c(Nc3ccc4c(c3)NC(=O)CS4(=O)=O)n2)c1 [Compound 302]	< 10		
COc1cc(Nc2ncc(F)c(Nc3ccc4c(c3)NC(=O)CS4(=O)=O)n2)cc(OC)c1 [Compound 303]	< 10		

Structure (SMILES)	IC50 [1] [µM]	IC50 [3] [µM]	also measured
COc1ccc(Nc2ncc(F)c(Nc3ccc4c(c3)NC(=O)CS4(=O)=O)n2)cc1Cl [Compound 304]	< 10		
CNC(=O)COc1cccc(Nc2ncc(F)c(Nc3ccc4c(c3)NC(=O)CS4(=O)=O)n2)c1 [Compound 305, 5-Fluoro-N2-[3-(N-methylamino)carbonylmethyleneoxyphenyl]-N4-(1,1,3-trioxo-2H,4H-benzo[1,4]thiazin-6-yl)-2,4-pyrimidinediamine]			IC50 [2]: < 10 µM
COc1cc(Nc2ncc(F)c(Nc3ccc4c(c3)NC(=O)CS4(=O)=O)n2)cc(OC)c1OC [Compound 306, 5-Fluoro-N2-(3,4,5-triimethoxylphenyl)-N4-(1,1,3-trioxo-2H,4H-benzo[1,4]thiazin-6-yl)-2,4-pyrimidinediamine]			IC50 [2]: < 10 µM
O=C1CS(=O)(=O)c2ccc(Nc3nc(Nc4ccc5cn[nH]c5c4)ncc3F)cc2N1 [Compound 307]	< 10		
O=C1CS(=O)(=O)c2ccc(Nc3nc(Nc4cccc(O)c4)ncc3F)cc2N1 [Compound 308]	< 10		
COc1ccc(Nc2ncc(F)c(Nc3ccc4c(c3)NC(=O)CS4(=O)=O)n2)cc1F [Compound 309]	< 10		
O=C1CS(=O)(=O)c2ccc(Nc3nc(Nc4ccc5[nH]ncc5c4)ncc3F)cc2N1 [Compound 310]	< 10		
Cn1ncc2ccc(Nc3ncc(F)c(Nc4ccc5c(c4)NC(=O)C(C)(C)S5)n3)cc21 [Compound 311]	< 10	< 10	
O=C1CSc2ccc(Nc3nc(Cl)ncc3F)cc2N1 [Compound 313, N2-Chloro-5-fluoro-N4-(3-oxo-2H,4H-benzo[1,4]thiazin-6-yl)-4-pyrimidineamine]			IC50 [4]: < 10 µM
O=C1CS(=O)(=O)c2ccc(Nc3nc(Cl)ncc3F)cc2N1 [Compound 315, N2-Chloro-5-fluoro-N4-(1,1,3-trioxo-2H,4H-benzo[1,4]thiazin-6-yl)-4-pyrimidineamine]			IC50 [4]: > 10 µM
CC1(C)Sc2ccc(Nc3nc(Cl)ncc3F)cc2NC1=O [Compound 316, N2-Chloro-N4-(2,2,-dimethyl-3-oxo-4H-benzo[1,4]thiazin-6-yl)-5-fluoro-4-pyrimidineamine]			IC50 [4]: < 10 µM
CC1(C)C(=O)Nc2cc(Nc3nc(Cl)ncc3F)ccc2S1(=O)=O [Compound 318, N2-Chloro-N4-(2,2-dimethyl-1,1,3-trioxo-4H-benzo[1,4]thiazin-6-yl)-5-fluoro-4-pyrimidineamine]			IC50 [4]: < 10 µM
CC1(C)COc2ccc(Nc3nc(Cl)ncc3F)cc2N1 [Compound 320, N2-Chloro-N4-(3,3-dimethyl-1,4-benzoxazin-6-yl)-5-fluoro-pyrimidineamine]			IC50 [4]: < 10 µM
COc1cc(Nc2ncc(F)c(Nc3cccc(OC(F)(F)F)c3)n2)cc(OC)c1 [Compound 324]		< 10	
Cc1cc(C)cc(Nc2ncc(F)c(Nc3cccc(OC(F)(F)F)c3)n2)c1 [Compound 325, N2-(3,5-Dimethylphenyl)-5-fluoro-N4-(3-trifluoromethoxyphenyl)-2,4-pyrimidinediamine]		< 10	
Fc1cnc(Nc2ccc3cc[nH]c3c2)nc1Nc1cccc(OC(F)(F)F)c1 [Compound 326, 5-Fluoro-N2-(indol-6-yl)-N4-(3-trifluoromethoxyphenyl)-2,4-pyrimidinediamine]	< 10	< 10	
CNC(=O)COc1cccc(Nc2ncc(F)c(Nc3ccc4ccn(C(=O)NC)c4c3)n2)c1 [Compound 327, 5-Fluoro-N4-[1-(N-methylamino)carbonylindol-6-yl]-N2-[3-(N-methylamino)carbonylmethyleneoxyphenyl]-2,4-pyrimidinediamine]			IC50 [4]: < 10 µM
COc1cc(Nc2ncc(F)c(Nc3cc(C)cc(C)c3)n2)cc(OC)c1 [Compound 328]	< 10		
COc1cc(Nc2ncc(F)c(Nc3cc(C)cc(C)c3)n2)cc(C(F)(F)F)c1 [Compound 329]		< 10	
Cc1cc(C)cc(N(c2cc(C)cc(C(F)(F)F)c2)c2nc(N)ncc2F)c1 [Compound 330]		< 10	
COc1cc(Nc2nc(Nc3cc(C)cc(C)c3)ncc2F)cc(C(F)(F)F)c1 [Compound 331]		< 10	
COc1cc(Nc2ncc(F)c(Nc3cc(OC)cc(C(F)(F)F)c3)n2)cc(OC)c1 [Compound 332, N2-(3,5-Dimethoxyphenyl)-5-fluoro-N4-(3-methoxy-5-trifluoromethylphenyl)-2,4-pyrimidinediamine]		< 10	
COc1cc(Nc2ncc(F)c(Nc3cc(OC)cc(C(F)(F)F)c3)n2)cc(C(F)(F)F)c1 [Compound 333]		< 10	
COc1cc(Nc2nc(Nc3cc(C)cc(C(F)(F)F)c3)ncc2F)cc(C(F)(F)F)c1 [Compound 334]		< 10	
COc1cc(Nc2nc(Nc3cc(OC)c(OC)c(OC)c3)ncc2F)cc(C(F)(F)F)c1 [Compound 335]	< 10		
